Results: patent US10040759B2, “Substituted azetidinyl compounds as GlyT1 inhibitors” (DART NEUROSCIENCE (CAYMAN) LTD., priority 2014, dated 2018)

Molecular target: T1, GlyT1 (Homo sapiens, UniProt P48067)
T1 construct: expressed in transfected cells
T1 sequence (P48067 1-706): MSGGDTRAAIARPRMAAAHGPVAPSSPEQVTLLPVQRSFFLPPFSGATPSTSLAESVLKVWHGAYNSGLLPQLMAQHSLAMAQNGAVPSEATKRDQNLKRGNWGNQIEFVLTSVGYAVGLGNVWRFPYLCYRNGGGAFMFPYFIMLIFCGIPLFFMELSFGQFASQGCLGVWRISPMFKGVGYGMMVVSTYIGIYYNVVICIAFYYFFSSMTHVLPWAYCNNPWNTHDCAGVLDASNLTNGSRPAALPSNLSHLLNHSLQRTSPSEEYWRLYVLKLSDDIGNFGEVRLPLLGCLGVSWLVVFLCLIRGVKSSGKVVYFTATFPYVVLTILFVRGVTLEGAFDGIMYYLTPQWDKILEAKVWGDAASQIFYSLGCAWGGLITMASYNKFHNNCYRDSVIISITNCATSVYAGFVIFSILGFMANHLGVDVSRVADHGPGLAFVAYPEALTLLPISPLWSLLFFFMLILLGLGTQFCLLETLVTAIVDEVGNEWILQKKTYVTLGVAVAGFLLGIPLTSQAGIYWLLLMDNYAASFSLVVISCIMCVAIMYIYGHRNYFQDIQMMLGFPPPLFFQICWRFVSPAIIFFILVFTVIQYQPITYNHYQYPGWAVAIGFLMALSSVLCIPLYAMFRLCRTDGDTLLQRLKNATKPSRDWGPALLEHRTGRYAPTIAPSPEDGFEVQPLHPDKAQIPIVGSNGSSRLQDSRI
Test: Glycine Transporter 1 (GlyT1) uptake assay, scintillation proximity assay of [14C]-glycine uptake
Format: cell-based
Settings: [14C]-glycine uptake; read-out: GlyT1 (pIC50) (converted)
How it was run: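 IC50 values were derived by four-parameter logistic fitting of counts. The 2× compound solutions were made by 1:100 dilution into HBSS of DMSO serial dilutions.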

| Compound | IC50 |
| --- | --- |
| COc1c(S(C)(=O)=O)ccc(O[C@@H](C)C(F)(F)F)c1C(=O)N1CC(c2cccc(F)c2Cl)C1 [Example 253, 3-(2-Chloro-3-fluorophenyl)-1-(3-methanesulfonyl-2-methoxy-6-{[(2S)-1,1,1-trifluoropropan-2-yl]oxy}benzoyl)azetidine] | < 100 nM |
| COc1c(S(C)(=O)=O)ccc(O[C@@H](C)C(F)(F)F)c1C(=O)N1CC(Oc2ccncc2)C1 [Example 62, 4-{[1-(3-Methanesulfonyl-2-methoxy-6-{[(2S)-1,1,1-trifluoropropan-2-yl]oxy}benzoyl)azetidin-3-yl]oxy}pyridine] | 100 to 1000 nM |
| COc1c(S(C)(=O)=O)ccc(OCC(F)(F)F)c1C(=O)N1CC(Oc2ccc(Cl)cc2)C1 [Example 222, 3-(4-Chlorophenoxy)-1-[3-methanesulfonyl-2-methoxy-6-(2,2,2-trifluoroethoxy)benzoyl]azetidine] | 100 to 1000 nM |
| COc1c(C#N)ccc(C2(F)CCOCC2)c1C(=O)N1CC(Oc2ccc(F)c(F)c2)C1 [Example 25, 3-{[3-(3,4-Difluorophenoxy)azetidin-1-yl]carbonyl}-4-(4-fluorooxan-4-yl)-2-methoxybenzonitrile] | 100 to 1000 nM |
| COc1c(C#N)ccc(O[C@@H](C)C(F)(F)F)c1C(=O)N1CC(c2ccc(C#N)cc2Cl)C1 [Example 118, 3-{[3-(2-Chloro-4-cyanophenyl)azetidin-1-yl]carbonyl}-2-methoxy-4-{[(2S)-1,1,1-trifluoropropan-2-yl]oxy}benzonitrile] | < 100 nM |
| COc1c(C#N)ccc(C2(F)CCC2)c1C(=O)N1CC(c2ccc(C(F)(F)F)cc2)C1 [Example 3, 4-(1-Fluorocyclobutyl)-2-methoxy-3-({3-[4-(trifluoromethyl)phenyl]azetidin-1-yl}carbonyl)benzonitrile] | < 100 nM |
| COc1c(S(C)(=O)=O)ccc(O[C@@H](C)C(F)(F)F)c1C(=O)N1CC(c2cc(Cl)ccc2F)C1 [Example 251, 3-(5-Chloro-2-fluorophenyl)-1-(3-methanesulfonyl-2-methoxy-6-{[(2S)-1,1,1-trifluoropropan-2-yl]oxy}benzoyl)azetidine] | < 100 nM |
| COc1cc(C(F)(F)F)cnc1C1CN(C(=O)c2c(O[C@@H](C)C(F)(F)F)ccc(C#N)c2OC)C1 [Example 9, (S)-2-methoxy-3-(3-(3-methoxy-5-(trifluoromethyl)pyridin-2-yl)azetidine-1-carbonyl)-4-((1,1,1-trifluoropropan-2-yl)oxy)benzonitrile] | < 100 nM |
| COc1c(C#N)ccc(O[C@@H](C)C(F)(F)F)c1C(=O)N1CC(c2ccc(C3CCOCC3)cc2)C1 [Example 158, 2-Methoxy-3-{3-[4-(oxan-4-yl)phenyl]azetidine-1-carbonyl}-4-{[(2S)-1,1,1-trifluoropropan-2-yl]oxy}benzonitrile] | < 100 nM |
| COc1c(S(C)(=O)=O)ccc(OCC(F)(F)F)c1C(=O)N1CC(c2ccc(C#N)cc2Cl)C1 [Example 237, 3-Chloro-4-{1-[3-methanesulfonyl-2-methoxy-6-(2,2,2-trifluoroethoxy)benzoyl]azetidin-3-yl}benzonitrile] | < 100 nM |
| COc1c(S(C)(=O)=O)ccc(OC(C)C)c1C(=O)N1CC(c2ccc(C(F)(F)F)cc2)C1 [Example 217, 1-[3-Methanesulfonyl-2-methoxy-6-(propan-2-yloxy)benzoyl]-3-[4-(trifluoromethyl)phenyl]azetidine] | 100 to 1000 nM |
| COc1c(S(C)(=O)=O)ccc(OC(C)C(F)(F)F)c1C(=O)N1CC(Oc2ccc(F)cc2)C1 (centres unmarked) [Example 16, 3-(4-Fluorophenoxy)-1-({3-methanesulfonyl-2-methoxy-6-[(1,1,1-trifluoropropan-2-yl)oxy]phenyl}carbonyl)azetidine] | < 100 nM |
| COc1c(C#N)ccc(C2CCCC2)c1C(=O)N1CC(c2ccc(C(F)(F)F)cn2)C1 [Example 12, 4-Cyclopentyl-2-methoxy-3-{3-[5-(trifluoromethyl)pyridin-2-yl]azetidine-1-carbonyl}benzonitrile] | < 100 nM |
| COc1c(S(C)(=O)=O)ccc(OC(C)C)c1C(=O)N1CC(Oc2ccc(F)cc2F)C1 [Example 220, 3-(2,4-Difluorophenoxy)-1-[3-methanesulfonyl-2-methoxy-6-(propan-2-yloxy)benzoyl]azetidine] | 100 to 1000 nM |
| COc1c(C#N)ccc(O[C@@H](C)C(F)(F)F)c1C(=O)N1CC(c2ncc(C(F)(F)F)cc2F)C1 [Example 5, (S)-3-(3-(3-Fluoro-5-(trifluoromethyl)pyridin-2-yl)azetidine-1-carbonyl)-2-methoxy-4-((1,1,1-trifluoropropan-2-yl)oxy)benzonitrile] | 100 to 1000 nM |
| COc1c(C#N)ccc(O[C@@H](C)C(F)(F)F)c1C(=O)N1CC(c2ccc(C3CCOC(C)(C)C3)cc2)C1 (stereo partly drawn) [Example 160, 3-{3-[4-(2,2-Dimethyloxan-4-yl)phenyl]azetidine-1-carbonyl}-2-methoxy-4-{[(2S)-1,1,1-trifluoropropan-2-yl]oxy}benzonitrile] | < 100 nM |
| COc1c(C#N)ccc(O[C@@H](C)C(F)(F)F)c1C(=O)N1CC(c2ccc(F)c(F)c2)C1 [Example 51, 3-[3-(3,4-Difluorophenyl)azetidine-1-carbonyl]-2-methoxy-4-{[(2S)-1,1,1-trifluoropropan-2-yl]oxy}benzonitrile] | 1000 to 10000 nM |
| COc1c(S(C)(=O)=O)ccc(OCC(C)(C)C)c1C(=O)N1CC(c2ccc3ncoc3c2)C1 [Example 249, 6-{1-[6-(2,2-Dimethylpropoxy)-3-methanesulfonyl-2-methoxybenzoyl]azetidin-3-yl}-1,3-benzoxazole] | 100 to 1000 nM |
| COc1c(S(C)(=O)=O)ccc(O[C@@H](C)C(F)(F)F)c1C(=O)N1CC(Oc2cccc(C(F)(F)F)c2)C1 [Example 44, 1-(3-Methanesulfonyl-2-methoxy-6-{[(2S)-1,1,1-trifluoropropan-2-yl]oxy}benzoyl)-3-[3-(trifluoromethyl)phenoxy]azetidine] | 100 to 1000 nM |
| COc1c(C#N)ccc(C2(F)CCOCC2)c1C(=O)N1CC(F)(c2ccc(F)c(F)c2)C1 [Example 18, 3-{[3-(3,4-Difluorophenyl)-3-fluoroazetidin-1-yl]carbonyl}-4-(4-fluorooxan-4-yl)-2-methoxybenzonitrile] | 100 to 1000 nM |
| COc1c(S(C)(=O)=O)ccc(OCC(C)(C)C)c1C(=O)N1CC(c2ccc(C(F)(F)F)cc2)C1 [Example 238, 1-[6-(2,2-Dimethylpropoxy)-3-methanesulfonyl-2-methoxybenzoyl]-3-[4-(trifluoromethyl)phenyl]azetidine] | < 100 nM |
| COc1c(S(C)(=O)=O)ccc(O[C@@H](C)C(F)(F)F)c1C(=O)N1CC(Oc2ccc(F)cc2C)C1 [Example 58, 3-(4-Fluoro-2-methylphenoxy)-1-(3-methanesulfonyl-2-methoxy-6-{[(2S)-1,1,1-trifluoropropan-2-yl]oxy}benzoyl)azetidine] | < 100 nM |
| COc1c(S(C)(=O)=O)ccc(O[C@@H](C)C(F)(F)F)c1C(=O)N1CC(Oc2c(F)cccc2F)C1 [Example 203, 3-(2,6-Difluorophenoxy)-1-(3-methanesulfonyl-2-methoxy-6-{[(2S)-1,1,1-trifluoropropan-2-yl]oxy}benzoyl)azetidine] | 100 to 1000 nM |
| COc1c(C#N)ccc(O[C@@H](C)C(F)(F)F)c1C(=O)N1CC(c2ccc(C#N)c(F)c2)C1 [Example 116, 3-{[3-(4-Cyano-3-fluorophenyl)azetidin-1-yl]carbonyl}-2-methoxy-4-{[(2S)-1,1,1-trifluoropropan-2-yl]oxy}benzonitrile] | < 100 nM |
| COc1c(S(C)(=O)=O)ccc(O[C@@H](C)C(F)(F)F)c1C(=O)N1CC(Oc2ccccc2)C1 [Example 194, 1-(3-Methanesulfonyl-2-methoxy-6-{[(2S)-1,1,1-trifluoropropan-2-yl]oxy}benzoyl)-3-phenoxyazetidine] | < 100 nM |
| COc1c(C#N)ccc(OC(C)C(F)(F)F)c1C(=O)N1CC(c2ccc(F)c(F)c2)C1 (centres unmarked) [Example 101, 3-{[3-(3,4-Difluorophenyl)azetidin-1-yl]carbonyl}-2-methoxy-4-[(1,1,1-trifluoropropan-2-yl)oxy]benzonitrile] | < 100 nM |
| COc1c(C#N)ccc(OC(C)C(F)(F)F)c1C(=O)N1CC(c2ccccc2F)C1 (centres unmarked) [Example 92, 3-{[3-(2-Fluorophenyl)azetidin-1-yl]carbonyl}-2-methoxy-4-[(1,1,1-trifluoropropan-2-yl)oxy]benzonitrile] | 100 to 1000 nM |
| COc1c(S(C)(=O)=O)ccc(O[C@@H](C)C(F)(F)F)c1C(=O)N1CC(c2ccc3ncoc3c2)C1 [Example 246, 6-[1-(3-Methanesulfonyl-2-methoxy-6-{[(2S)-1,1,1-trifluoropropan-2-yl]oxy}benzoyl)azetidin-3-yl]-1,3-benzoxazole] | < 100 nM |
| COc1c(C#N)ccc(C2CCCC2)c1C(=O)N1CC(Oc2ccc(C(F)(F)F)cc2)C1 [Example 211, 4-Cyclopentyl-2-methoxy-3-{3-[4-(trifluoromethyl)phenoxy]azetidine-1-carbonyl}benzonitrile] | 100 to 1000 nM |
